Assay results from patent US7888042B2, “Methods for identifying insulin mimetics” (Ohio University, priority 2005, dated 2011).

Tested on: IR
Assay: IR phosphorylation, Western blot
Assay type: cell-based, Chinese hamster
Details: CHO-IR cells, 20 or 40 μM, 15 min
Experimental: (A) Glucose transport was measured by determining [^3H]-2-deoxyglucose uptake stimulated by either insulin or α-PGG in 3T3-L1 cells in the presence or absence of HNMPA-(AM)3, an inhibitor of IR tyrosine kinase activity (24); wortmannin, an inhibitor of PI 3-kinase (25), or cytochalasin B, an inhibitor of GLUT4 (26), (n=4, mean±SD). (B) Cells were induced by 20 or 40 μM α-PGG or 100 nM insulin for 15 min. Cell lysates were separated by PAGE and analyzed for phosphorylation of IR (in CHO-IR cells) or Akt (in adipocytes) using antibodies specific to the target proteins. (C) Cells were treated with α-PGG and insulin in a fashion similar to (B) and assayed for their respective PI-3 kinase activity with a radioactive TLC method (27). (D) In similar experiments, intact cells were analyzed by confocal microscopy for translocation of GLUT4 using anti-GLUT4 antibodies.
Protein phosphorylation/activation and GLUT4 translocation. To investigate signal transduction induced by α-PGG, proteins from 3T3-L1 adipocytes or CHO-IR cells (23), which were treated with α-PGG or insulin for 15 min, were isolated, separated by PAGE, blotted on nylon membranes, and analyzed by Western blotting with antibodies against either IR or Akt. […]

O=C(OC[C@H]1O[C@H](OC(=O)c2cc(O)c(O)c(O)c2)[C@H](OC(=O)c2cc(O)c(O)c(O)c2)[C@@H](OC(=O)c2cc(O)c(O)c(O)c2)[C@@H]1OC(=O)c1cc(O)c(O)c(O)c1)c1cc(O)c(O)c(O)c1 [α-PGG, alpha 1,2,3,4,6-penta-O-galloyl-D-Glucopyranose]
phosphorylation of the IR: induces the phosphorylation of the IR
